Measured values published in patent US20140128352A1, “COMPOUNDS AND METHODS FOR MODULATING MITOCHONDRIAL METABOLISM AND REACTIVE OXYGEN SPECIES PRODUCTION” (Buck Institute for Research on Aging, priority 2012, published 2014).
Where two headings read alike, the source gives them in different places.

Key:
[1] = target: T1, succinate dehydrogenase/complex II (SDH) (Rattus norvegicus, UniProt P21913+Q641Z9+Q6PCT8+Q920L2); experiment: High-throughput screen: ROS production from succinate dehydrogenase/complex II (SDH); assay type: biochemical; conditions: for % Reduction in ROS Production (SDH): Table 5, 15 μM palmitoyl carnitine, 2.5 μM antimycin A, 2 μM myxothiazol, compounds 2.5 μM, percent change from DMSO
T1 construct: freshly isolated muscle mitochondria were assayed; from tissue; host or cells: rat skeletal muscle mitochondria (Wistar, Harlan Laboratories)
T1 sequence (Q920L2 35-656): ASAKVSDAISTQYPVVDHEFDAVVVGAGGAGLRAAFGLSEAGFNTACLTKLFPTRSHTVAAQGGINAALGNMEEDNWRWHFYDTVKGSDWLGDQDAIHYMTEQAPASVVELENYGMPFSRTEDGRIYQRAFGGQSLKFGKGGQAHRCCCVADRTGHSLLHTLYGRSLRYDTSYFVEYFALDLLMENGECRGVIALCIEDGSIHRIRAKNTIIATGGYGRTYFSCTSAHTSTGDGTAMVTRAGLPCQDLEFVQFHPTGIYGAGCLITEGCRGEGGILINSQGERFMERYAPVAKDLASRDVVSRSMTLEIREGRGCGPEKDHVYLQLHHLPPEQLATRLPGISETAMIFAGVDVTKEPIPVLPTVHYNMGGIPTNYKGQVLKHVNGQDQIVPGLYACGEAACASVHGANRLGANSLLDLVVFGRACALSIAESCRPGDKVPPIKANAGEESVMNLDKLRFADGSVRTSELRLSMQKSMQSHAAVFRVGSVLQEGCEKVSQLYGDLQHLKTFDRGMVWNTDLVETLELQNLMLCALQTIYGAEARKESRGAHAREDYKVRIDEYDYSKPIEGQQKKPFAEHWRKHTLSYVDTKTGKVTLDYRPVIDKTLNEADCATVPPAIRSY
T1 sequence (P21913 31-282): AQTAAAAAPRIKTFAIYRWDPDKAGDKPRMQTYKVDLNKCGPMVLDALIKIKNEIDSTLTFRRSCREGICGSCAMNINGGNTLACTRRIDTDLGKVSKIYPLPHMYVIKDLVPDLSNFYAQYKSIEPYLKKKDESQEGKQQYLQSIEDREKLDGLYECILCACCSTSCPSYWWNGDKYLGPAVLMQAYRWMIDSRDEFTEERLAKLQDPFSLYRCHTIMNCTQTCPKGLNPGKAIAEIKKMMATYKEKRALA
T1 sequence (Q641Z9 30-169 limits assumed): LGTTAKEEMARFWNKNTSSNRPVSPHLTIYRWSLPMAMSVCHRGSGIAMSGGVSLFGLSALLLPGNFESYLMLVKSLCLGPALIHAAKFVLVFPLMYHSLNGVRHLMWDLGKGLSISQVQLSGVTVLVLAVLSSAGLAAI
T1 sequence (Q6PCT8 57-159): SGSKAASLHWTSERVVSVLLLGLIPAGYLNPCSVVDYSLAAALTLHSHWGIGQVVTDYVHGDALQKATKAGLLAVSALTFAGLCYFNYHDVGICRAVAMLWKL

[2] = target: T2, outer ubiquinone binding site of complex III (IIIQO) (Rattus norvegicus, UniProt P00159+P20788); experiment: High-throughput screen: ROS production from outer ubiquinone binding site of complex III (IIIQO); assay type: biochemical
T2 construct: freshly isolated muscle mitochondria were assayed; from tissue; host or cells: rat skeletal muscle mitochondria (Wistar, Harlan Laboratories)

[3] = target: T3, flavin binding site of complex I (IF) (Rattus norvegicus, UniProt Q5XIH3); experiment: High-throughput screen: ROS production from flavin binding site of complex I (IF); assay type: biochemical
T3 construct: freshly isolated muscle mitochondria were assayed; from tissue; host or cells: rat skeletal muscle mitochondria (Wistar, Harlan Laboratories)
T3 sequence (Q5XIH3 21-464 limits assumed, one chain of several): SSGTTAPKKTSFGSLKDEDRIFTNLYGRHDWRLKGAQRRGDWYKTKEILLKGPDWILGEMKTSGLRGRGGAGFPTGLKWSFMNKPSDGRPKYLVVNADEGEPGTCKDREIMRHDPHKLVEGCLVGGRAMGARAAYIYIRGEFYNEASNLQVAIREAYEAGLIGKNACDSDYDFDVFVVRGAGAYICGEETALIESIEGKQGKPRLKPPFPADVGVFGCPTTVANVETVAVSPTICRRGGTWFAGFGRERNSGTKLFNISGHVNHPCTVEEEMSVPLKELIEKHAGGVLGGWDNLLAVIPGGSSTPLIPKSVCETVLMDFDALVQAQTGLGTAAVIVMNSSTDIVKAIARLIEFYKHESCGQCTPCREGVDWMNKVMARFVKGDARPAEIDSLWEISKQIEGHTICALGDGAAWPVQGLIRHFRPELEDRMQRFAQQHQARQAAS

[4] = test system: ubiquinone binding site of complex I (IQ); experiment: High-throughput screen: ROS production from ubiquinone binding site of complex I (IQ), isolated skeletal muscle mitochondria; assay type: biochemical, rat; conditions: for IQ: percent change in ROS from DMSO controls; for % Reduction in ROS production (IQ): Table 2, 5 mM succinate, compounds 2.5 μM, percent change from DMSO, positive control −100%
[5] = test system: mitochondrial membrane potential (ΔΨm); experiment: Membrane potential (ΔΨm) counterscreen with TMRM; conditions: malate, nigericin
[6] = target: T4, glycerol-3-phosphate dehydrogenase (GPDH) (Rattus norvegicus, UniProt P35571); experiment: High-throughput screen: ROS production from glycerol-3-phosphate dehydrogenase (GPDH); assay type: biochemical; parameters: inhibition: dose or concentration left out as unconfirmed
T4 construct: The activity of GPDH in intact mitochondria (0.3 mg/mL) was measured; from tissue; host or cells: rat skeletal muscle mitochondria (Wistar, Harlan Laboratories)
T4 sequence (P35571 43-727): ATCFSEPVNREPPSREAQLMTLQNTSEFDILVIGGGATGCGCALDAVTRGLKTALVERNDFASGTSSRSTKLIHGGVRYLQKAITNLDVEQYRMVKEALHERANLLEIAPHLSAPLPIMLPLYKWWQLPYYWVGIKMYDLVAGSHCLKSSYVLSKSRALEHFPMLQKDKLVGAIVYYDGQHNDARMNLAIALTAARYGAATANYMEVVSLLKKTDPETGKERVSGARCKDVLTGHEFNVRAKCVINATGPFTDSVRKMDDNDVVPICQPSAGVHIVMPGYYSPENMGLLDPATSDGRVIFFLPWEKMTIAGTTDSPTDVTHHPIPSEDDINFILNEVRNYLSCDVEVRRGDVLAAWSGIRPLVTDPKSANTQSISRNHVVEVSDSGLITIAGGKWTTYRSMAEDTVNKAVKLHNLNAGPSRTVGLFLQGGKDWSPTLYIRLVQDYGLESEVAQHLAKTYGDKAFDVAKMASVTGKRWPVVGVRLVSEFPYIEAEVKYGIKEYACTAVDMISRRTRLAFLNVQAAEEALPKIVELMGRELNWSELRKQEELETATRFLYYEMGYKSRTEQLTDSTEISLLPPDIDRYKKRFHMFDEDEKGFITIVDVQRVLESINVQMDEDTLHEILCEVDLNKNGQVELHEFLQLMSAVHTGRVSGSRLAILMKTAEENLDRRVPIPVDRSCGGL
Method: Skeletal muscle mitochondria were isolated from 5-8 week old female Wistar rats (Harlan Laboratories). Minced muscle was homogenized in buffer containing bacterial protease Type VIII prior to differential centrifugation to separate mitochondria from other tissue components. Unless otherwise stated, freshly isolated muscle mitochondria were assayed in buffer containing 120 mM KCl, 5 mM HEPES, 1 mM EGTA, 0.3% (w/v) bovine serum albumin. Where indicated, CaCl2 was added to yield a final free concentration of 250 nM calcium at pH 7.0 at 37° C.
Compounds (10 mM in DMSO) were randomly selected from a library of 24,000 compounds obtained from ChemBridge and curated by the lab of Robert Hughes at the Buck Institute. Master screening plates were prepared using a Biomek FX liquid handling workstation (Beckman) to transfer 1 μL of each compound into individual wells on 96-well storage plates (80 compounds per plate). Master plates were sealed with foil and stored at −80° C. Just prior to use, plates were brought to room temperature and diluted 300-fold with standard buffer (13.3X=33.3 μM). To monitor the performance of each assay throughout screening and to provide intra-plate normalization reference points, DMSO negative controls and known mitochondrial inhibitor positive controls were included on each Master compound plate.
Total amounts of superoxide and H2O2 production were determined fluorometrically as H2O2, without distinguishing between them, in the presence of exogenous superoxide dismutase (25 units/mL final), horseradish peroxidase (1 unit/mL final), and Amplex UltraRed (25 μM final) as described (Affourtit, C. et al. (2012) Measurement of proton leak and electron leak in isolated mitochondria. Methods Mol. Biol. 810: 165-82). Just prior to use, a bulk 3.3X solution was made in standard buffer and distributed into a 2 mL deep well 96-well transfer plate.
To assess the effects of a compound on ROS production from glycerol-3-phosphate dehydrogenase (GPDH), Start Solution containing 25 mM glycerol phosphate, 4 μM rotenone, 2.5 μM antimycin A, 1 mM malonate, 2 μM myxothiazol was distributed into standard 96-well transfer plates. A Biomek FX workstation was programmed to dispense solutions into black 96-well assay plates. Solutions were dispensed to all assay plates in the following order: ROS Detection solution described in Example 3, Mitochondria solution described in Example 1 to a final concentration of 0.2 mg/ml, and Compound dilutions described in Example 2. Duplicate assay plates were made and each was initiated by the addition of 3.3X Start solution containing 25 mM glycerol phosphate, 4 μM rotenone, 2.5 μM antimycin A, 1 mM malonate, 2 μM myxothiazol. Plates were incubated in the dark at room temperature for 30-40 minutes before acquiring endpoint fluorescence using a Victor 3V plate reader (Perkin Elmer) equipped with 550/590 nm excitation/emission filters.
The fluorescence values in each well were scaled as the percent change from the intra-plate DMSO controls. […] Following initial scaling, intra-plate normalized values were subjected to Tukey's two-way median polish to remove row and column dependent positional effects (Malo et al., 2006).

[7] = Table 7, percent change in ROS from DMSO controls
[8] = Table 8, percent change in ROS from DMSO controls
[9] = Table 9, percent change in ROS from DMSO controls
[10] = Table 7, percent change in ROS from DMSO controls, read-out: IIIQO
[11] = Table 9, percent change in ROS from DMSO controls, read-out: IIIQo
[12] = Table 3, 5 mM glutamate, 5 mM malate, 4 μM rotenone, compounds 2.5 μM, percent change from DMSO, positive control −100%, read-out: % Reduction in ROS production (IF)
[13] = Table 7, percent change in ROS from DMSO controls, read-out: IF
[14] = Table 8, percent change in ROS from DMSO controls, read-out: IIIQO
[15] = Table 8, percent change in ROS from DMSO controls, read-out: IF
[16] = Table 4, 5 mM succinate, 4 μM rotenone, 2.5 μM antimycin A, compounds 2.5 μM, percent change from DMSO, read-out: % Reduction in ROS production (IIIQO)

SMILES	inhibition at 2.5 µM [1, 7]	SDH [1, 8]	SDH [1, 9]	inhibition at 2.5 µM [2, 10]	IIIQO [2, 8]	inhibition at 2.5 µM [2, 11]	inhibition at 2.5 µM [3, 13]	IF [3, 8]	IF [3, 9]	IQ ([4]; Table 7)	IQ ([4]; Table 8)	IQ ([4]; Table 9)	ΔΨm ([5]; Table 8, glutamate)	ΔΨm ([5]; Table 9, glutamate)	inhibition [6, 7]	GPDH [6, 8]	GPDH [6, 9]	inhibition at 2.5 µM [2, 16]	also measured
O=C(COc1ccc(Cl)cc1Cl)Nc1ccc(F)cc1F [Compound 24]	1.5%	−1.5	−1.5	1.3%	−1.3	1.3%	19.8%	−19.8	−19.8	−1.0	−1.0	−1.0	0.1	0.1	2%	−2.0	−2.0	–	inhibition at 2.5 µM [3, 12]: 19.8%
Cc1cc(C)c(OCC(O)CNC(C)(C)CC(C)(C)C)c(C)c1.Cl (stereo not shown) [Compound 14]	–	–	–	–	−2.9	–	–	–	–	−4.7	−4.7	−4.7	−0.7	−0.7	–	–	–	–	SDH [1]: −9.6; IIIQO [2, 7]: −2.9; IIIQO [2, 9]: −2.9; % Reduction in ROS production (IF) [3]: −37.7%; IF [3]: −37.7; GPDH [6]: −3.9
O=S(=O)(Nc1ccc(Br)cc1)c1ccc(C2CCCCC2)cc1 [Compound 8]	-0.4%	0.4	0.4	-7.6%	7.6	-7.6%	4.2%	−4.2	−4.2	−36.3	−36.3	−36.3	−0.3	−0.3	1.8%	−1.8	−1.8	–	% Reduction in ROS production (IQ) [4]: −36.3%
CN(C)c1ccc(C(=C2CN3CCC2CC3)c2ccc(N(C)C)cc2)cc1 [Compound 81]	–	–	–	–	–	–	–	–	–	–	2	–	−1	–	–	–	–	–	inhibition at 2.5 µM [1, 8]: 1%; inhibition at 2.5 µM [2, 14]: 0%; inhibition at 2.5 µM [3, 15]: 49%; inhibition [6, 8]: 13%
Cc1cc(C)c(S(=O)(=O)N2CCCC2=O)c(C)c1 [Compound 40]	2.7%	−2.7	−2.7	25.1%	−25.1	25.1%	-1.8%	1.8	1.8	4.3	4.3	4.3	0.7	0.7	4.2%	−4.2	−4.2	25.1%	–
Oc1nnc(Cc2ccncc2)c2ccccc12 [Compound 72]	27.4%	−27.4	−27.4	-5.4%	5.4	-5.4%	-2.6%	2.6	2.6	0.4	0.4	0.4	1.0	1.0	-1.7%	1.7	1.7	–	% Reduction in ROS Production (SDH) [1]: −27.4%
COc1ccc(NC(=S)NC(=O)c2ccco2)cc1 [Compound 75]	–	–	–	–	–	–	–	–	–	–	−50	–	−2	–	–	–	–	–	% Reduction in ROS Production (SDH) [1]: −22%; inhibition at 2.5 µM [1, 8]: 22%; inhibition at 2.5 µM [2, 14]: -3%; inhibition at 2.5 µM [3, 12]: 83%; inhibition at 2.5 µM [3, 15]: 83%; % Reduction in ROS production (IQ) [4]: −50%; inhibition at 2.5 µM ([6]; Table 6, 25 mM glycerol phosphate, rotenone, antimycin A, malonate, myxothiazol, compounds 2.5 μM, scaled to IQ positive controls, read-out: % Reduction in ROS Production (GPDH)): 16%; inhibition [6, 8]: 16%
Cc1ccc(CCSc2ccc(F)cc2)cn1 [Compound 35]	-0.2%	0.2	0.2	34.9%	−34.9	34.9%	0.7%	−0.7	−0.7	1.3	1.3	1.3	0.6	0.6	5.3%	−5.3	−5.3	34.9%	–
c1ccc(C2CCC(Nc3ccc4c(c3)OCO4)CC2)cc1 (stereo not shown) [Compound 77]	–	–	–	–	–	–	–	–	–	–	−18	–	1	–	–	–	–	15%	inhibition at 2.5 µM [1, 8]: 0%; inhibition at 2.5 µM [2, 14]: 15%; inhibition at 2.5 µM [3, 15]: 6%; % Reduction in ROS production (IQ) [4]: −18%; inhibition [6, 8]: -1%
Clc1ccc(N2CCN(CC(c3ccccc3)c3ccccc3)CC2)cc1 [Compound 83]	–	–	–	–	–	–	–	–	–	–	2	–	1	–	–	–	–	29%	% Reduction in ROS Production (SDH) [1]: −14%; inhibition at 2.5 µM [1, 8]: 14%; inhibition at 2.5 µM [2, 14]: 29%; inhibition at 2.5 µM [3, 15]: 1%; inhibition [6, 8]: 3%
COc1ccc(NS(=O)(=O)c2cccc(C(=O)Nc3ccc(C)cc3)c2)cc1 [Compound 11]	0.2%	−0.2	−0.2	1.9%	−1.9	1.9%	-3.3%	3.3	3.3	−23.8	−23.8	−23.8	−0.4	−0.4	5%	−5.0	−5.0	–	% Reduction in ROS production (IQ) [4]: −23.8%
CCN1CCN(C2CCC(C(C)(C)C)CC2)CC1 (stereo not shown) [Compound 22]	-5.5%	5.5	5.5	6.2%	−6.2	6.2%	22.1%	−22.1	−22.1	−0.4	−0.4	−0.4	−0.9	−0.9	2.6%	−2.6	−2.6	–	inhibition at 2.5 µM [3, 12]: 22.1%
Fc1ccc(SCCc2ccccn2)cc1 [Compound 42]	-0.7%	0.7	0.7	24.1%	−24.1	24.1%	2.6%	−2.6	−2.6	7.9	7.9	7.9	0.4	0.4	0.3%	−0.3	−0.3	24.1%	–
COc1cccc(CCNC2C3CC4CC(C3)CC2C4)c1 (stereo not shown) [Compound 26]	–	–	–	1.8%	−1.8	1.8%	19.6%	−19.6	−19.6	−0.8	−0.8	−0.8	−0.7	−0.7	3.3%	−3.3	−3.3	–	–
CCCCN(Cc1ccccc1)Cc1cc(Cl)cc(Cl)c1O [Compound 38]	–	–	–	31.3%	−31.3	31.3%	1.8%	−1.8	−1.8	−3.9	−3.9	−3.9	0.3	0.3	-3.7%	3.7	3.7	31.3%	–
